Experimental findings from the Bradley open melting point set (2014) are described below.

Structures are written as SMILES. Several values for one entry are separate records, joined by “and”; a condition that tells them apart may be missing. Equal entries are not always repeated.

In general, melting point refers to the temperature of the solid-liquid transition. For the compound `O=[N+]([O-])c1ccc(N=Nc2ccc(O)cc2O)cc1` [4-[(4-Nitrophenyl)diazenyl]benzene-1,3-diol], the melting point stood at 200 °C.
Compound `Cc1cc(C)c(C)c(Br)c1C` [1-bromo-2,3,5,6-tetramethylbenzene] returned a melting point of 60 °C.
On to `O=C(O)CC1Cc2ccccc2C1` [2-indanylacetic acid], for which the melting point was found to be 92 °C.
Then `CC(=O)N1CCN(c2ccc(OC[C@H]3CO[C@](Cn4ccnc4)(c4ccc(Cl)cc4Cl)O3)cc2)CC1` [ketoconazol], with 146 °C.
As for `CCc1ccc2ccccc2c1` [2-ethylnaphthalene], the melting point was -7.35 °C.
With `O=S1(=O)CCCO1` [1,2-Oxathiolane 2,2-dioxide] the figure was 32 °C.
Turning to `CCCCCCCCCC(C)O` (stereo unspecified) [2-undecanol], the melting point was found to be 2 °C.
In the case of `Cc1ccccc1[N+](=O)[O-]` [2-nitrotoluene], the melting point is -4 °C.
`CC#CCCC` [2-hexyne] displayed a melting point of -90 °C.
`COC(=O)CCCCCCCCC(=O)OC` [dimethyl sebacate] yielded a melting point of 27 °C.
With `O=C1OC(=O)c2c(Cl)c(Cl)c(Cl)c(Cl)c21` [4,5,6,7-Tetrachloro-2-benzofuran-1,3-dione] the figure was 256 °C.
`O=C5\C=C4/C(C3CCC2(C(CCC2OC(=O)c1ccccc1)C3CC4)C)(C)CC5` (stereo unspecified) [testosterone benzoate] came in with a melting point of 195 °C.
In the case of `CCOC(=O)C(C#N)=c1sc(=C(C#N)C(=O)OCC)s1` [DIETHYL 2,2'-(1,3-DITHIETANE-2,4-DIYLIDENE)BIS(CYANOACETATE)], the melting point amounted to 161 °C.
In turn, `CC(C)(C)C(=O)Cl` [trimethylacetyl chloride] had a melting point of -57 °C.
Compound `CCCCCCCCCCCCCCCCC` [N-heptadecane] registered a melting point of 22 °C.
`OCc1ccccc1O[C@@H]1O[C@H](CO)[C@@H](O)[C@H](O)[C@H]1O` [D-salicin]: the melting point was determined as 199 °C.
`c1ccc(-c2c3ccccc3c(-c3ccccc3)c3ccccc23)cc1` [9,10-diphenylanthracene] returned a melting point of 251 °C.
Regarding `O=C(CCCl)c1ccc(F)cc1` [3-chloro-4'-fluoropropiophenone], the melting point is 48 °C.
Take `Oc1ccc2ccccc2c1` [2-Naphthol]: the melting point amounted to 122 °C.
In turn, `CCOC(=O)C1=C(C)C(C(=O)OCC)N=C1C` (stereo unspecified) [2,4-Dimethyl-3,5-dicarbethoxypyrrole] displayed a melting point of 137 °C.
`Cc1ccc(C)c(C)c1` [1,2,4-Trimethylbenzene] yielded a melting point of -43.8 °C.
Then `CNC(=O)N(C)c1nnc(C(F)(F)F)s1` [Thiazafluron], with 136 °C; and `O=C(O)CCC(=O)c1ccc(-c2ccccc2)cc1` [Fenbufen], with 186 °C.
As to `Cc1ccc(Cl)c(O)c1` [2-chloro-5-methylphenol], the melting point is 47 °C.
`NC(=O)N1c2ccccc2C=Cc2ccccc21` [carbamazepine]: the melting point worked out at 192 °C.
The compound `OB(O)c1ccc(F)cc1F` [2,4-difluorobenzeneboronic acid] gave a melting point of 249 °C.
Regarding `CC(C)Cl` [2-chloropropane], the melting point is -117 °C.
`Brc1nc2ccccc2[nH]1` [2-bromobenzimidazole] yielded a melting point of 198 °C.
As for `CCC1(CC)C(=O)NC(=O)N(C)C1=O` [metharbital], the melting point was 150 °C.
`O=c1c(-c2ccc(O)cc2)coc2cc(O)cc(O)c12` [Genistein]: the melting point is 302 °C.
Regarding `O=C(O)CC[C@H](NC(=O)OCc1ccccc1)C(=O)O` [N-benzyloxycarbonyl-l-glutamic acid], the melting point came out at 119 °C.
`CCC(C)(C)C(=O)O[C@H]1C[C@@H](C)C=C2C=C[C@H](C)[C@H](CC[C@@H]3C[C@@H](O)CC(=O)O3)[C@H]21` [simvastatin] showed a melting point of 136 °C.
Compound `Clc1nc2ccccc2[nH]1` [2-chlorobenzimidazole] came in with a melting point of 183 °C.
Then `O=C1CC(c2cccc(O)c2)Oc2ccccc21` (stereo unspecified) [3'-hydroxyflavanone], with 140 °C.
With `O=C(O)/C=C/c1cccc2c(Br)ccc([N+](=O)[O-])c12` [(2E)-3-(5-bromo-8-nitronaphthalen-1-yl)prop-2-enoic acid], the melting point was 142 °C.
On to `O=C(/C=C/c1ccccc1[N+](=O)[O-])c1cccc(O)c1` [(2E)-1-(3-Hydroxyphenyl)-3-(2-nitrophenyl)-2-propen-1-one], for which the melting point is 188 °C.
As to `O=C(CCCN1CCC(O)(c2ccc(Cl)cc2)CC1)c1ccc(F)cc1` [haloperidol], the melting point was 149 °C.
`Oc1cc(Cl)c(-c2c(Cl)cc(Cl)cc2Cl)c(Cl)c1O` [PCB-155] came in with a melting point of 113 °C.
With `CCCCC#N` [butyl_cyanide] the figure was -96 °C; with `ClC(Cl)=C(Cl)c1c(Cl)c(Cl)c(Cl)c(Cl)c1Cl` [Octachlorostyrene], 95 °C; with `O=P1(NCCCl)OCCCN1CCCl` (stereo unspecified) [Ifosfamide], 40 °C.
With `CCCCC` [pentane], the melting point was -130 °C.
Then `N[C@@H](CO)Cc1ccccc1` [D-phenylalaninol], with 92 °C; and `CCCOC(=O)c1ccc(O)cc1` [propyl 4-hydroxybenzoate], with 96 °C.
For the compound `COc1ccc2c(c1)C(=O)CC2` [6-methoxy-1-indanone], the melting point amounted to 103 °C.
`O=S(Br)Br` [thionyl bromide] displayed a melting point of -52 °C.
Take `Cc1cc(Br)ncc1B(O)O` [6-bromo-4-methylpyridine-3-boronic acid]: the melting point was found to be 164 °C.
Turning to `O=Cc1ccc(B(O)O)cc1` [4-formylbenzeneboronic acid], the melting point amounted to 263 °C.
In the case of `Cc1ccc(S)c(S)c1` [3,4-toluenedithiol], the melting point is 30 °C.
Take `O=[N+]([O-])/C=C/c1cccc([N+](=O)[O-])c1` [beta,3-dinitrostyrene]: the melting point turned out to be 126 °C.
As to `O=C(O)C1=NN(c2ccccc2)C(=O)C1=CC1C(=O)N(c2ccccc2)N=C1C(=O)O` (stereo unspecified), the melting point came to 259 °C.
The compound `O=Cc1cccc(O)c1` [3-hydroxybenzaldehyde] returned a melting point of 105 °C.
With `O=C(O)c1cc(O)ccc1O` [2,5-dihydroxybenzoic acid] the figure was 200 °C and 205 °C; with `CCOc1ccc(NC(C)=O)cc1` [Phenacetin], 135 °C; with `COC(=O)CC(C)=O` [methyl_acetoacetate], -80 °C.
The compound `CNC(=O)O/N=C(\C)SC` [Methyl (1E)-N-[(methylcarbamoyl)oxy]ethanimidothioate] had a melting point of 79 °C.
Compound `CSCC[C@H](NC(C)=O)C(=O)O` [N-Acetyl-L-methionine] had a melting point of 106 °C.
With `N#Cc1cccc(N)c1` [3-aminobenzonitrile] the figure was 52 °C.
Turning to `Nc1c2c(nc3ccccc13)CCCC2O` (stereo unspecified) [velnacrine], the melting point amounted to 245 °C.
`CCNCCO` [2-(ethylamino)ethanol] had a melting point of -9 °C.
`CCOC(=O)N1c2ccccc2C=CC1OCC` (stereo unspecified) [2-ethoxy-1-ethoxycarbonyl-1,2-dihydroquinoline] registered a melting point of 65 °C.
With `C=C(CC)C(=O)c1ccc(OCC(=O)O)c(Cl)c1Cl` [Ethacrynic acid] the figure was 122 °C; with `CC(C)(C)c1ccc(O)c(O)c1` [4-tert-butylcatechol], 55 °C.
Regarding `CSC` [Dimethyl sulfide], the melting point is -98 °C.
`CN(C)c1ccc(Br)cc1` [4-bromo-n,n-dimethylaniline] gave a melting point of 55 °C.
In the case of `CC(C)c1cccc(C(C)C)c1N` [2,6-diisopropylaniline], the melting point is -54 °C.
Then `C=Cc1ccc([N+](=O)[O-])cc1` [p-nitrostyrene], with 29 °C.
`CCOC(=O)c1cncn1C(C)c1ccccc1` (stereo unspecified) [etomidate]: the melting point stood at 67 °C.
Then `c1ccc2c(c1)OCCOCCOCCOCCO2` [benzo-15-crown-5], with 80 °C.
As for `O=C(O)c1ccc(O)cc1` [4-hydroxybenzoic acid], the melting point was 214 °C and 215 °C.
The compound `Cc1cccc(O)c1C` [2,3-dimethylphenol] registered a melting point of 72 °C.
Regarding `COc1ccc(C(=O)O)cc1` [4-Methoxybenzoic acid], the melting point was 184 °C.
The compound `ClC(Cl)(Cl)C(Cl)(Cl)Cl` [hexachloroethane] registered a melting point of 192 °C.
For the compound `N#CCc1ccc(I)cc1` [4-iodophenylacetonitrile], the melting point amounted to 53 °C.
`CC(=O)Oc1ccccc1C(=O)O` [aspirin]: the melting point came to 142 °C.
Regarding `COc1ccc2c(c1)CCCC2=O` [6-methoxy-1-tetralone], the melting point amounted to 79 °C.
Then `Nc1cccc(Br)c1` [m-bromoaniline], with 17 °C; and `CCCCCOCCCCC` [pentyl_ether], with -69 °C.
On to `C[C@]12CCC(=O)C=C1CC[C@@H]1[C@@H]2CC[C@@]2(C)[C@H]1CC[C@]2(C)O` [methyltestosterone], for which the melting point is 164 °C.
As to `O=S(=O)(O)c1ccccc1` [benzenesulfonic acid], the melting point was 48 °C.
Then `Cc1ccc([N+](=O)[O-])cc1C` [1,2-Dimethyl-4-nitrobenzene], with 30.5 °C; and `c1ccc(Oc2cccc(-c3nnn[nH]3)c2)cc1` [5-(3-phenoxyphenyl)-1h-tetrazole], with 153 °C.
Take `CCN(CC)c1ccccc1` [N,N-Diethylaniline]: the melting point is -38 °C.
Compound `Clc1ncc[nH]1` [2-chloroimidazole] displayed a melting point of 166 °C.
Consider `CCCCCCC(C)C` [2-methyloctane], for which the melting point is -80 °C.
Then `O=Cc1ccccc1` [Benzaldehyde], with -56 °C; and `COS(C)(=O)=O` [Methyl methanesulfonate], with 20 °C; and `CCC(=O)O` [propionic acid], with -21 °C.
With `CCC(C)=NO` [N-Hydroxybutan-2-imine] the figure was -29.5 °C.
Take `OC1CCCCCCCCCCC1` [cyclododecanol]: the melting point came out at 78 °C.
Then `Cc1ccnc2c1NC(=O)c1cccnc1N2C1CC1` [nevirapine], with 248 °C.
